Data as given in patent publication US20200022964A1, “COMPOSITIONS AND METHODS FOR TREATMENT OF INFLAMMATORY AUTOIMMUNE DISEASES” (New York University, priority 2018, published 2020).

Experiments:
[1] = test system: TNF-α induced AA production; assay: Arachidonic acid detection in BMDMs; type: cell-based, mice; conditions: TNF-α 10 ng/mL, 48 hours
From the text: Arachidonic acid detection. […] The result was detected at 450nm by automatic plate reader (SpectraMax i3x system, 5025027A, Molecular Devices). ATK was implemented as a positive control.

TNF-α and TNFR1 = TNF-α and TNFR1 (Homo sapiens, UniProt P19438); assay: Solid phase binding of TNF-α to TNFR1
TNF-α and TNFR1, sequence (P19438 30-211 limits assumed, species assumed): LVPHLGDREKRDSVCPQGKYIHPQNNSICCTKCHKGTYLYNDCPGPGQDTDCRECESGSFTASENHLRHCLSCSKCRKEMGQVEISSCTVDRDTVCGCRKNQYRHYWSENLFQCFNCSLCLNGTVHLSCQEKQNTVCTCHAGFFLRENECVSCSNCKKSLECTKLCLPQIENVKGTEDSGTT
Description: Solid phase binding. […] Briefly, a 96-well ELISA plate was coated with 100 μL of 0.5 ng/μL TNFR1 at 4° C. overnight. The plate was washed with PBST 5 times, and 300 μL blocking buffer was added to each well followed by incubation at room temperature for 1 hour. After discarding the blocking buffer, 50 μL buffer containing drugs at concentrations ranging from 0.1 nM to 10^5 nM were added to the plate for 1 hour at room temperature. Three wells incubated with bovine serum albumin (BSA) served as negative controls and three wells containing TNF-α were set as positive controls. Without washing, 50 μL buffer containing 10 ng biotin-labeled TNF-α was added to each well and incubated at room temperature for 2 hours. The plate was washed and 100 μL buffer containing streptavidin-HPR was added and incubated at room temperature for 30 minutes. After a final wash, 100 μL TMB buffer was added to each well and the reaction was stopped when the positive control group turned blue. The plate was read by automatic plate reader at 450 nm.

TNF-α = assay: ELISA of TNF-α induced release of IL-1β and IL-6 in BMDMs; type: cell-based, mice; conditions: TNF-α 10 ng/mL; for TNF-α induced releases of IL-1β and IL-6: FFD 1, 10 μM, TFD 0.1, 1 μM, 48 hours
Description: (§1) Primary bone marrow derived macrophages (BMDMs) extraction. BMDMs were isolated from C57BL/6 and TNF-tg mice. After mice were sacrificed by cervical dislocation, the tibia and femur were isolated and both ends of the bones were cut to open the medullary cavity. Bone marrow cells were collected by centrifuge at 13000 g for 90 seconds and seeded in 6-well plates. Prior to their use in experiments, M-CSF (10 ng/ml, 576406, Biolegend) was added for 6 days to the BMDM culture medium.

cPLA2 = biological target: T1, cPLA2 (Mus musculus, UniProt P47713); assay: CETSA assay in RAW264.7 cells; type: binding; design: endogenous in cells; host or cells: RAW264.7; conditions: for EC50: CETSA at 49° C., 0.001 μM to 100 μM, read-out: EC50 of prevention of cPLA2 denaturation (isothermal dose response)
T1 sequence (P47713 1-748): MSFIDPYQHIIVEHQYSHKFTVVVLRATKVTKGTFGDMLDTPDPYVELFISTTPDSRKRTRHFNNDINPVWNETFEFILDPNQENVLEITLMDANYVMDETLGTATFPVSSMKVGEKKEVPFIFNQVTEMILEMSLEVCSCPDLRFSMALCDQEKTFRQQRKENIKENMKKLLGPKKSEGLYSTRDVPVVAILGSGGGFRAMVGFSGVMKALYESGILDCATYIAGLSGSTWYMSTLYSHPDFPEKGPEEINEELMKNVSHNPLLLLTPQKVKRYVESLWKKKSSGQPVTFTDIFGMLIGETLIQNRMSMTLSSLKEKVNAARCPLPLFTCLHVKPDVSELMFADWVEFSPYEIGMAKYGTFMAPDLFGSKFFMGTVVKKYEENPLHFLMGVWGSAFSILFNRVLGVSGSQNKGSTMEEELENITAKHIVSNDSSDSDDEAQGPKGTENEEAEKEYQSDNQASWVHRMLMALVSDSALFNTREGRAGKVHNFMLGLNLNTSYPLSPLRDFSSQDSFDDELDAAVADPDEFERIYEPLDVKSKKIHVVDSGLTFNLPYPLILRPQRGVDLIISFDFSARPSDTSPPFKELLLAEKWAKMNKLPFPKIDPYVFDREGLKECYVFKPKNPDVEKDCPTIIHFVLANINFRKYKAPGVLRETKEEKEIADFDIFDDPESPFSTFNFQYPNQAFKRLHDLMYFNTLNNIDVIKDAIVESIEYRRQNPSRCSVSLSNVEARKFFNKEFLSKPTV
Description: CETSA assay. RAW264.7 cells were treated with FFD (10 μM)/TFD (1 μM) for 1 hour in a 37° C. incubator with 5% CO2. Cells were harvested and divided equally into different tubes, after which the cells were heated to different temperatures for 3 minutes. After lysis via 3 repeated freeze-thaw cycles, samples underwent centrifugation at 20000 g and supernatants were collected for analysis. For the isothermal dose response, a series of ten-fold change concentrations (ranged from 0.001 μM to 100 μM) of FFD/TFD were used to treat cells and no variation in temperature was introduced. The remaining steps are the same as previously reported^5.

[2] = test system: TNFRs expressed on cell surface; assay: Flow cytometry of biotin-labelled TNF-α binding to RAW264.7 cell surface; type: cell-based; conditions: RAW264.7 cells; FFD 10 μM, TFD 1 μM overnight
Description: Flow cytometry. […] RAW 264.7 cells were seeded in a 12-well plate. […] Then the samples were analyzed at NYU core facilities using a FACS Calibur cell analyzer with CellQuest software.

TNF-α-induced genes = assay: RNA-seq of TNF-α-treated BMDMs; type: cell-based, mice; conditions: TNF-α 10 ng/mL; FFD 10 μM, TFD 1 μM; 24 hours
Description: as §1
RNAseq and Transcription factors enrichment analysis. […] Total RNA was extracted by RNeasy Mini Kit (74106, Qiagen), and gene expression profiling analyzed by RNA-seq was performed by the NYU Genome Technology Center for RNA sequencing (Illumina HiSeq4000 Sequencing, HiSeq 4000 Single Read 50 Cycle Lane).

Structure (SMILES)	TNF-α induced AA production [1]	binding of TNF-α to TNFR1 in vitro (TNF-α and TNFR1)	effect of AA supplementation on inhibition of TNF-α induced release of IL-1β and IL6 (TNF-α; AA 10 μM, FFD 10 μM)	TNF-α induced releases of IL-1β and IL-6 (TNF-α)	EC50 (cPLA2)	binding of TNF-α to the cell surface [2]	expression of TNF-α-induced genes (RNA-seq) (TNF-α-induced genes)	Tm of cPLA2 (CETSA melt curve) (cPLA2; RAW264.7 cells, FFD 10 μM, TFD 1 μM, 1 hour, control DMSO 46.09)
CC(C)(C(=O)O)c1ccc(C(O)CCCN2CCC(C(O)(c3ccccc3)c3ccccc3)CC2)cc1 (centres unmarked) [fexofenadine]	inhibited	did not affect	eliminated the inhibitory influence	abolished	102 nM	did not affect	clearly downregulated	
CC(C)(C)c1ccc(C(O)CCCN2CCC(C(O)(c3ccccc3)c3ccccc3)CC2)cc1 (centres unmarked) [terfenadine]	inhibited	did not affect		abolished	1.45 nM	did not affect	clearly downregulated	49.08 °C
